Results taken from PMC3113660 (Journal of medicinal chemistry, 2010).

How the values were obtained:
[1] = test system: Plasmodium falciparum (K1, resistant to chloroquine); experiment: In vitro growth inhibition assay of P. falciparum; format: cell-based
P. berghei [2] = experiment: P. berghei mouse model; format: in vivo; details: subcutaneously at 30 mg/kg daily for four days; data not shown
P. berghei [3] = details: mice; cited from earlier work
[4] = test system: T. brucei rhodesiense STIB900; format: in vivo, mice; details: 4 × 5 mg/kg ip; number of mice that survive and are parasite free for 60 days
[5] = test system: Leishmania donovani (MHOM/SD/62/1S-CL2D) axenic amastigotes; experiment: Antileishmanial assay; format: cell-based; details: in vitro, axenic amastigotes
L6 rat myoblast cells = experiment: In vitro cytotoxicity assay; format: cell-based; details: L6 cells; relative to 5,5′-disubstituted analogue 1

## Cl.Cl.Oc1cc(C2=NCCN2)ccc1-c1cn(-c2ccc(C3=NCCN3)cc2)nn1 [Compound 60, 4-[4-(4,5-Dihydro-1H-imidazol-2-yl)-2-hydroxyphenyl]-1-[4-(4,5-dihydro-1H-imidazol-2-yl)phenyl]-1H-1,2,3-triazole Dihydrochloride]
[1]; relative to diimidazoline 48
  times as active against P. falciparum: 3 times
[1]; relative to pentamidine
  times greater antiplasmodial selectivity index SIP: ~400 times
P. berghei [2]
  effect on blood parasite count: did not reduce the blood parasite count

## N=C(N)c1ccc(-c2ccc(-c3ccc(C(=N)N)cc3)o2)cc1 [furamidine, 2,5-bis(4-amidinophenyl)furan]
P. berghei [3]
  activity against trophozoite-induced P. berghei infection: inactive

## Cl.Cl.N=C(N)c1ccc(-n2cc(-c3cccc(C(=N)N)c3)nn2)cc1 [Compound 16, 1-(4-Amidinophenyl)-4-(3-amidinophenyl)-1H-1,2,3-triazole Dihydrochloride]
[4]
  cures: curing one out of four mice
[5]
  activity against L. donovani (in words): active
L6 rat myoblast cells
  fold increased cytotoxicity: ~25 fold
